In publication PMC10239507, “Development of allosteric and selective CDK2 inhibitors for contraception with negative cooperativity to cyclin binding” (Nature Communications, 2023):

How the values were obtained:
Experiment in all cases: biochemical
[1] = target: T1, 371 kinases (kinase named in each endpoint) (Homo sapiens, UniProt O15146); details: MUSK
T1 construct: purchased Reaction Biology

[2] = target: T2, 371 kinases (kinase named in each endpoint) (Homo sapiens, UniProt O94921); details: CDK14/CYCLIN Y (PFTK1)
T2 construct: purchased Reaction Biology
T2 sequence (O94921 whole entry): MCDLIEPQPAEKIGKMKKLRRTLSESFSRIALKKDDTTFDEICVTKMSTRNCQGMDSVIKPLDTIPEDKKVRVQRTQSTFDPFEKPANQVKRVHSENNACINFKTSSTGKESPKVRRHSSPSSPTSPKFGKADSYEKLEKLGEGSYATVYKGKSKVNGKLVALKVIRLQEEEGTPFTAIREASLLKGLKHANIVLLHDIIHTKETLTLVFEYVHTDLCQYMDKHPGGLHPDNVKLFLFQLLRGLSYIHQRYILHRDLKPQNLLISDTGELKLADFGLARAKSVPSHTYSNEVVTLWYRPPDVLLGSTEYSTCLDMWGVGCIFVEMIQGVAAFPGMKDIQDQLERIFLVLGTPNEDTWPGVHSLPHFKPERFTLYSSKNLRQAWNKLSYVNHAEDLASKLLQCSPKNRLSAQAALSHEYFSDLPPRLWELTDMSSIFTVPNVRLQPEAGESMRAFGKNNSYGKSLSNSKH

[3] = target: T3, 371 kinases (kinase named in each endpoint) (Homo sapiens, UniProt O96017); details: CHK2
T3 construct: purchased Reaction Biology

[4] = target: T4, 371 kinases (kinase named in each endpoint) (Homo sapiens, UniProt P06493)
T4 construct: purchased Reaction Biology
T4 sequence (P06493 whole entry): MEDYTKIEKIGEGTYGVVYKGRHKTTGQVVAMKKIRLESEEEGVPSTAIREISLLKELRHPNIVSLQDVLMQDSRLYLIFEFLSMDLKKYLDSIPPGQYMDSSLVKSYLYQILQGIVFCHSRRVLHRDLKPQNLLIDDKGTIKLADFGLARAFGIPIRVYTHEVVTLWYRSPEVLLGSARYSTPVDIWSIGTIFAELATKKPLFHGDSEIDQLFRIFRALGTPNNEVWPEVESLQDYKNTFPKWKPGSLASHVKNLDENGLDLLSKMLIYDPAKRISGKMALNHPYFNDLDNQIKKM

[5] = target: T5, 371 kinases (kinase named in each endpoint) (Homo sapiens, UniProt P08069); details: IGF1R
T5 construct: purchased Reaction Biology

[6] = target: T6, 371 kinases (kinase named in each endpoint) (Homo sapiens, UniProt P09619); details: PDGFRB
T6 construct: purchased Reaction Biology

[7] = target: T7, 371 kinases (kinase named in each endpoint) (Homo sapiens, UniProt P11309); details: PIM1
T7 construct: purchased Reaction Biology
T7 sequence (P11309 whole entry): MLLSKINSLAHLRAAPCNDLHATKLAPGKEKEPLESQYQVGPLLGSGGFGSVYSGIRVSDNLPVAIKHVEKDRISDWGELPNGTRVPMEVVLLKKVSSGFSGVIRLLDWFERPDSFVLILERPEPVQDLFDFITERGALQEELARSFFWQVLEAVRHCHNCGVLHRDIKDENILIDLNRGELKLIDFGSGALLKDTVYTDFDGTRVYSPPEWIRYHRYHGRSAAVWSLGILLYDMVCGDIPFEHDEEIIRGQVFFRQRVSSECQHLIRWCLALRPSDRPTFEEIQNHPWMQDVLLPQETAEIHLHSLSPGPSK

[8] = target: T8, 371 kinases (kinase named in each endpoint) (Homo sapiens, UniProt P15056); details: BRAF
T8 construct: purchased Reaction Biology

[9] = target: T9, 371 kinases (kinase named in each endpoint) (Homo sapiens, UniProt P16234); details: PDGFRA
T9 construct: purchased Reaction Biology

[10] = target: T10, 371 kinases (kinase named in each endpoint) (Homo sapiens, UniProt P17948); details: FLT1/VEGFR1
T10 construct: purchased Reaction Biology

[11] = target: T11, 371 kinases (kinase named in each endpoint) (Homo sapiens, UniProt P29320); details: EPHA3
T11 construct: purchased Reaction Biology

[12] = target: T12, 371 kinases (kinase named in each endpoint) (Homo sapiens, UniProt P29323); details: EPHB2
T12 construct: purchased Reaction Biology

[13] = target: T13, 371 kinases (kinase named in each endpoint) (Homo sapiens, UniProt P36896); details: ALK4/ACVR1B
T13 construct: purchased Reaction Biology

[14] = target: T14, 371 kinases (kinase named in each endpoint) (Homo sapiens, UniProt P41743); details: PKCIOTA
T14 construct: purchased Reaction Biology

[15] = target: T15, 371 kinases (kinase named in each endpoint) (Homo sapiens, UniProt P42684); details: ABL2/ARG
T15 construct: purchased Reaction Biology
T15 sequence (P42684 whole entry): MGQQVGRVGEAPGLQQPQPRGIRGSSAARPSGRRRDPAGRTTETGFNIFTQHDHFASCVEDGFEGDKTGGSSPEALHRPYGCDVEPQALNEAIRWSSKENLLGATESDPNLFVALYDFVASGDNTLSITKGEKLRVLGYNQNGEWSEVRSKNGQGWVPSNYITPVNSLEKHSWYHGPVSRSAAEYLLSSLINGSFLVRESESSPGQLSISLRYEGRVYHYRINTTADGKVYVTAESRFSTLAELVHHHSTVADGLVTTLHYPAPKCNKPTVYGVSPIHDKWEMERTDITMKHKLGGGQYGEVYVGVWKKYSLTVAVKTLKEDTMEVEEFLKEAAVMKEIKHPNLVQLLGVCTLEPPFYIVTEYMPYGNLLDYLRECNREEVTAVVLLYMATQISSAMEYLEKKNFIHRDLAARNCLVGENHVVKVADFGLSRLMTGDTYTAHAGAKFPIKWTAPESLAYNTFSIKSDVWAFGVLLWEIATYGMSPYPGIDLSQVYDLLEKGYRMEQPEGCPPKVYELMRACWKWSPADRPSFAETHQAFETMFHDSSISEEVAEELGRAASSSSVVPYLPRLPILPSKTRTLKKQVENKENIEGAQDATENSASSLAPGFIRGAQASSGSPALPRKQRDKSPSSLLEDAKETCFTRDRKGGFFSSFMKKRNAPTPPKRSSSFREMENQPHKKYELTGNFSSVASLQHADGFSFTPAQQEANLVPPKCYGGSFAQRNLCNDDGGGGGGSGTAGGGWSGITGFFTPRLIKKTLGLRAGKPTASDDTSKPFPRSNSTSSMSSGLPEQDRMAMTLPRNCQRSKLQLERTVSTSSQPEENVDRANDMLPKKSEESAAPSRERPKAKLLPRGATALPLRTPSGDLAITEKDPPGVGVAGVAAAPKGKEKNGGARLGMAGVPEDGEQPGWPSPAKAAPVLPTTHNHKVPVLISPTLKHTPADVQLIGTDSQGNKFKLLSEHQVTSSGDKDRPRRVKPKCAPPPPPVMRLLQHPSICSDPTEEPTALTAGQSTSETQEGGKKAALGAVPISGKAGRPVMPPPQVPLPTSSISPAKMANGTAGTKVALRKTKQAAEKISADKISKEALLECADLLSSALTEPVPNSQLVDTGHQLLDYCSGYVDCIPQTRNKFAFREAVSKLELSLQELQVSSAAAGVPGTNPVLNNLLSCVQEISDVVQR

[16] = target: T16, 371 kinases (kinase named in each endpoint) (Homo sapiens, UniProt P43250); details: GRK6
T16 construct: purchased Reaction Biology

[17] = target: T17, 371 kinases (kinase named in each endpoint) (Homo sapiens, UniProt P45984); details: JNK2
T17 construct: purchased Reaction Biology

[18] = target: T18, 371 kinases (kinase named in each endpoint) (Homo sapiens, UniProt P52564); details: MKK6
T18 construct: purchased Reaction Biology

[19] = target: T19, 371 kinases (kinase named in each endpoint) (Homo sapiens, UniProt P53350); details: PLK1
T19 construct: purchased Reaction Biology

[20] = target: T20, 371 kinases (kinase named in each endpoint) (Homo sapiens, UniProt Q02779); details: MLK2/MAP3K10
T20 construct: purchased Reaction Biology

[21] = target: T21, 371 kinases (kinase named in each endpoint) (Homo sapiens, UniProt Q04912); details: RON/MST1R
T21 construct: purchased Reaction Biology

[22] = target: T22, 371 kinases (kinase named in each endpoint) (Homo sapiens, UniProt Q13557); details: CAMK2D
T22 construct: purchased Reaction Biology

[23] = target: T23, 371 kinases (kinase named in each endpoint) (Homo sapiens, UniProt Q6P5Z2); details: PKN3/PRK3
T23 construct: purchased Reaction Biology

[24] = target: T24, 371 kinases (kinase named in each endpoint) (Homo sapiens, UniProt Q6VAB6); details: KSR2
T24 construct: purchased Reaction Biology

[25] = target: T25, 371 kinases (kinase named in each endpoint) (Homo sapiens, UniProt Q7KZI7); details: MARK2/PAR-1BA
T25 construct: purchased Reaction Biology

[26] = target: T26, 371 kinases (kinase named in each endpoint) (Homo sapiens, UniProt Q86YV6); details: MYLK4
T26 construct: purchased Reaction Biology

[27] = target: T27, 371 kinases (kinase named in each endpoint) (Homo sapiens, UniProt Q8IU85); details: CAMK1D
T27 construct: purchased Reaction Biology

[28] = target: T28, 371 kinases (kinase named in each endpoint) (Homo sapiens, UniProt Q8TDC3); details: BRSK1
T28 construct: purchased Reaction Biology

[29] = target: T29, 371 kinases (kinase named in each endpoint) (Homo sapiens, UniProt Q96GX5); details: MASTL
T29 construct: purchased Reaction Biology
T29 sequence (Q96GX5 whole entry): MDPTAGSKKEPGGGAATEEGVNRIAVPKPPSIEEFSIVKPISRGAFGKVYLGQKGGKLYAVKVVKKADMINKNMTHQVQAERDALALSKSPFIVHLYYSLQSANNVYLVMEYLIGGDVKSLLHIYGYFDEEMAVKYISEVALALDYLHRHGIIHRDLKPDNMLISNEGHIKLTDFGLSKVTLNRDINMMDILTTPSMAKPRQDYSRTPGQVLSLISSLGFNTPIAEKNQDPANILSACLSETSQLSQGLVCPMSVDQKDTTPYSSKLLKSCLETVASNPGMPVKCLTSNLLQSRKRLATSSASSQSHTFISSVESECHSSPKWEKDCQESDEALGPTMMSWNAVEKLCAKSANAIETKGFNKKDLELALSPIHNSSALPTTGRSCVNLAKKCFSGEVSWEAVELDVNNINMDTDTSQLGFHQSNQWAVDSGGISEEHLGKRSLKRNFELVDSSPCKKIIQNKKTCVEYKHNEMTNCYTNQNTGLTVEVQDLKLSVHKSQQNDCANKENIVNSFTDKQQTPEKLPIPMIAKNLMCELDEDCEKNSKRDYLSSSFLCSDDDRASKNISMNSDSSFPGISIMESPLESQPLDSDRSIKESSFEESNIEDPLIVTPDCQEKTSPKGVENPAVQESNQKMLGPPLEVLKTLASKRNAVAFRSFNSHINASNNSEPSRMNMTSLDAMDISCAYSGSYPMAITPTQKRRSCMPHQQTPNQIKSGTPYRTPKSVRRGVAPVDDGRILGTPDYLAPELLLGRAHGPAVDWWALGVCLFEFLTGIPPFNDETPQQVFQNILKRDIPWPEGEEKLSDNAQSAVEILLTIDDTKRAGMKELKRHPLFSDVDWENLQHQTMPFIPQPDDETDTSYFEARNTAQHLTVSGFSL

[30] = target: T30, 371 kinases (kinase named in each endpoint) (Homo sapiens, UniProt Q9NRH2); details: SNRK
T30 construct: purchased Reaction Biology

[31] = target: T31, 371 kinases (kinase named in each endpoint) (Homo sapiens, UniProt Q9NYL2); details: ZAK/MLTK
T31 construct: purchased Reaction Biology

[32] = target: T32, 371 kinases (kinase named in each endpoint) (Homo sapiens, UniProt Q9P1W9); details: PIM2
T32 construct: purchased Reaction Biology
T32 sequence (Q9P1W9 whole entry): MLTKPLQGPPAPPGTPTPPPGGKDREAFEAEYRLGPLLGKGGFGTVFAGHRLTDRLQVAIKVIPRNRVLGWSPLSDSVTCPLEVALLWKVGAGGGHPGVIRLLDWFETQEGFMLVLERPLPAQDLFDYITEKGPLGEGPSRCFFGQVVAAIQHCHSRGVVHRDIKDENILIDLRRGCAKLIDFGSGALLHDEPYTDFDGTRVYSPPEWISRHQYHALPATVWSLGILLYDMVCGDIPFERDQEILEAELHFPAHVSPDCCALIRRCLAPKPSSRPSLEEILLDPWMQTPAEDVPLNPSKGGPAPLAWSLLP

[33] = target: T33, 371 kinases (kinase named in each endpoint) (Homo sapiens, UniProt Q9UBS0); details: P70S6KB/RPS6KB2
T33 construct: purchased Reaction Biology

[34] = target: T34, 371 kinases (kinase named in each endpoint) (Homo sapiens, UniProt Q9UK32); details: RSK4
T34 construct: purchased Reaction Biology

[35] = target: T35, 371 kinases (kinase named in each endpoint) (Homo sapiens, UniProt Q9UKE5); details: TNIK
T35 construct: purchased Reaction Biology

[36] = target: T36, 371 kinases (kinase named in each endpoint) (Homo sapiens, UniProt Q9UM73); details: ALK
T36 construct: purchased Reaction Biology
T36 sequence (Q9UM73 19-1620): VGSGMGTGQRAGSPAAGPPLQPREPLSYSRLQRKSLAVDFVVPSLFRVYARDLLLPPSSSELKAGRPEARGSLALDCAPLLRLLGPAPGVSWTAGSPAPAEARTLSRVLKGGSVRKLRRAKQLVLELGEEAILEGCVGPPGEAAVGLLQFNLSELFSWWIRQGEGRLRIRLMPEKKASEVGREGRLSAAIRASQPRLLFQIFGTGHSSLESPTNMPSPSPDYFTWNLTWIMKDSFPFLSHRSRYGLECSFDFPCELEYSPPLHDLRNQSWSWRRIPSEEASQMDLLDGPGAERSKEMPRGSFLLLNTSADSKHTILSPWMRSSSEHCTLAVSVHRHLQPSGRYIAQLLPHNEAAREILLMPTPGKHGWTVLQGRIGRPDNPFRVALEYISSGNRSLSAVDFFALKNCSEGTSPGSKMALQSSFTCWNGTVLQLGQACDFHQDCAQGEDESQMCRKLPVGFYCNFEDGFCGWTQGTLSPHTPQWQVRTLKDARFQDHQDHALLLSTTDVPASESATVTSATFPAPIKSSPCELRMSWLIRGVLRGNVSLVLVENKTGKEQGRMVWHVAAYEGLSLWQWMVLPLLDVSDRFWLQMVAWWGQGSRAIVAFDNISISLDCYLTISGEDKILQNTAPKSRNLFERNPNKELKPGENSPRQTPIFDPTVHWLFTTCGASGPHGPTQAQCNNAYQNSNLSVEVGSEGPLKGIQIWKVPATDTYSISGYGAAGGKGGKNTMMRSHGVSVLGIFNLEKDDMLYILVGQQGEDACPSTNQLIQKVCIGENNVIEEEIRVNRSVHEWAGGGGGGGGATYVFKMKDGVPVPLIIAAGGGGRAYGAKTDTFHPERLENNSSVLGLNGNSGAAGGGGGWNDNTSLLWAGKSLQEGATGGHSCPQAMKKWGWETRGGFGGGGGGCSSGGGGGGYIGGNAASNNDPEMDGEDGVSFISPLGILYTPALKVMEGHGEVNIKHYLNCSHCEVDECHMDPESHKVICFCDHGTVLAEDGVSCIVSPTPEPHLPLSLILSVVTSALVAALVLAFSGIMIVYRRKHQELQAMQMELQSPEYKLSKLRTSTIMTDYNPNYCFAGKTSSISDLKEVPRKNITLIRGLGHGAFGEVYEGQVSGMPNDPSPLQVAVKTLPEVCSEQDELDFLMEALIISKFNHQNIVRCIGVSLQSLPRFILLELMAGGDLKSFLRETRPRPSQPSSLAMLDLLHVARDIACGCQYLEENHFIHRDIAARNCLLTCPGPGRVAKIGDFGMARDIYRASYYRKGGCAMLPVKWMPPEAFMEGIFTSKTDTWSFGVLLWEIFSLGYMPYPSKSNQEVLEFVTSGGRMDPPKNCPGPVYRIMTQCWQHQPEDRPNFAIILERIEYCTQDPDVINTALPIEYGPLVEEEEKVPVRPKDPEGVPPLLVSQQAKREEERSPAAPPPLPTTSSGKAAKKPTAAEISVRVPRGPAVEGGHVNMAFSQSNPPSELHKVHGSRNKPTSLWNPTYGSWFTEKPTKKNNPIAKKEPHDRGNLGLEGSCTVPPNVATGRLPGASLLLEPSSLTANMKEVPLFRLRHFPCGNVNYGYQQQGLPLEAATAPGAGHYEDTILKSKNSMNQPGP

O=C(O)c1cc(C(F)(F)F)ccc1NCCc1c[nH]c2cc(Br)ccc12 [Compound 5, 2-((2-(6-Bromo-1H-indol-3-yl)ethyl)amino)−5-(trifluoromethyl)benzoic Acid]
activity at 10 µM [1]: 104.4 ± 1% | activity at 10 µM [2]: 114 ± 1.5% | activity at 10 µM [3]: 90.2 ± 1.5% | activity at 10 µM ([4]; CDK1/CYCLIN E): 60.2 ± 0.3% | activity at 10 µM ([4]; CDK1/cyclin A): 95.4 ± 0.8% | activity at 10 µM [5]: 93.2 ± 0.1% | activity at 10 µM [6]: 92.5 ± 0.1% | activity at 10 µM [7]: 40.6 ± 3.2% | activity at 10 µM [8]: 98.7 ± 0.5% | activity at 10 µM [9]: 86.9 ± 0.2% | activity at 10 µM [10]: 85 ± 0.7% | activity at 10 µM [11]: 99.7 ± 1.6% | activity at 10 µM [12]: 89.8% | activity at 10 µM [13]: 66.7 ± 0.1% | activity at 10 µM [14]: 96.8 ± 0.8% | activity at 10 µM [15]: 94.7 ± 2.8% | activity at 10 µM [16]: 112 ± 2.8% | activity at 10 µM [17]: 89.6 ± 0.4% | activity at 10 µM [18]: 101 ± 0.2% | activity at 10 µM [19]: 92.7 ± 1.5% | activity at 10 µM [20]: 74.8 ± 2.2% | activity at 10 µM [21]: 89.7 ± 2.7% | activity at 10 µM [22]: 78.3 ± 3.4% | activity at 10 µM [23]: 98.3 ± 1.2% | activity at 10 µM [24]: 83.3 ± 1.5% | activity at 10 µM [25]: 87.5 ± 0.7% | activity at 10 µM [26]: 78.7 ± 0.2% | activity at 10 µM [27]: 69.8 ± 1.7% | activity at 10 µM [28]: 77.2 ± 2.3% | activity at 10 µM [29]: 101.7 ± 0.2% | activity at 10 µM [30]: 80.4 ± 2.1% | activity at 10 µM [31]: 96.9 ± 0.2% | activity at 10 µM [32]: 92.4 ± 0.6% | activity at 10 µM [33]: 96.1 ± 1.6% | activity at 10 µM [34]: 91 ± 0.4% | activity at 10 µM [35]: 51.9 ± 1.4% | activity at 10 µM [36]: 93.8 ± 0.7%
